Measurements: patent US20010056184A1, “Pipecolinic acid derivatives, method of manufacturing the same and therapeutic agents containing these compounds” (priority 2000, published 2001)

Columns and labels:
Assay type in all cases: biochemical
[1] = molecular target: T1, human fibroblasts derived MMP-1 (type I collagenase) (Homo sapiens, UniProt P03956); assay: MMP-1 (type I collagenase) inhibitory activities, fluorogenic substrate enzyme assay; settings: for IC50: 37° C., 4 h, substrate 10 μM; for inhibition at 10 µM: at 10^−5M, NE means no effect, read-out: MMP-1 inhibition percent
T1 construct: human fibroblasts derived MMP-1 (Yagai Co. Ltd.) as enzyme; purchased Yagai Co. Ltd; host or cells: human fibroblasts
T1 sequence (P03956 100-469): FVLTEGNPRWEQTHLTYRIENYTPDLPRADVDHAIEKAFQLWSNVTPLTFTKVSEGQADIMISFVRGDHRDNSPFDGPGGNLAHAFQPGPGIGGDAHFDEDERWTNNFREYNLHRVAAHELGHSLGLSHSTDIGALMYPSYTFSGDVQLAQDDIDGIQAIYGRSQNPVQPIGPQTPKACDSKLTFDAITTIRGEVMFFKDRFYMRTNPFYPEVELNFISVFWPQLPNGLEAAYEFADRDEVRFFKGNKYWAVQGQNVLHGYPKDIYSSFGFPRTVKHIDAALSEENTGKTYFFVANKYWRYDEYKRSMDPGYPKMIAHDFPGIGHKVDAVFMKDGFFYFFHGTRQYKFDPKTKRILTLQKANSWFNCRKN
Description: Examination 1: MMP-1 (type I collagenase) inhibitory activities.
Inhibitory activities of MMP-1 (type I collagenase) activities were estimated by enzyme assay using human fibroblasts derived MMP-1 (Yagai Co. Ltd.) as enzyme, and MOCAc-Pro-Leu-Gly-Leu-A2pr(Dnp)-Ala-Arg-NH2 (Peptide Research Center, 3163-v) as substrate. Thus, MMP-1 (0.01 U/ml), test compound (10^−10˜10^−5 M), and the substrate (10 μM) were incubated in 50 mM Tris-HCl buffer (pH 7.4) containing 0.2M NaCl, 10 mM CaCl2, 0.02% NaN3, and 0.05% Brij 35 at 37° C. for 4 h. The reaction was stopped by adding of 4 volumes of sodium acetate buffer (pH 4.0), and the degradation of substrate was calculated by measurement with a fluorescence intensity (λ ex 328 nm, λ em 393 nm). Inhibition of degradation of substrate in the presence of compound was determined by comparison with the degradation percent of substrate in the absence of compound, and concentration of 50% inhibition (IC50 value) was calculated.

MMP-2 (gelatinase A) = molecular target: T2, MMP-2 (gelatinase A) (Homo sapiens, UniProt P08253); assay: MMP-2 (gelatinase A) inhibitory activities, fluorogenic substrate enzyme assay; settings: 42° C., 2 h, substrate 10 μM
T2 construct: made in house; host or cells: COS-1 cells (secreted into culture medium)
T2 sequence (P08253 110-660): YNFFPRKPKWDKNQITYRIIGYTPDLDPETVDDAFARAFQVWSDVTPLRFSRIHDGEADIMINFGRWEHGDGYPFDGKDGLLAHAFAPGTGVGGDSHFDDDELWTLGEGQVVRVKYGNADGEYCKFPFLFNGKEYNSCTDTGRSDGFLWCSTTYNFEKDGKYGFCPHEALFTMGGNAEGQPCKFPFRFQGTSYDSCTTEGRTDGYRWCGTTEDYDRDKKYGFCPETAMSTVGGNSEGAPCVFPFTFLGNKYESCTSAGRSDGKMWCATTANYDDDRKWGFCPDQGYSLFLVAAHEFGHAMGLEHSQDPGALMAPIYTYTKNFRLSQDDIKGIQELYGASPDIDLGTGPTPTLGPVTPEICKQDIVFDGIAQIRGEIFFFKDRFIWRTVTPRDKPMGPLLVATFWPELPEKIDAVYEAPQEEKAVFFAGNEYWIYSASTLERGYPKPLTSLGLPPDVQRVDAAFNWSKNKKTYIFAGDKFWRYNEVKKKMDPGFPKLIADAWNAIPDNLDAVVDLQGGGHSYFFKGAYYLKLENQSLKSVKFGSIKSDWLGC
Description: (§1) Examination 2: MMP-2 (gelatinase A) and MMP-9 (gelatinase B) inhibitory activities.
(§2) Pro MMP-2 was obtained from culture medium separated from human pro-MMP-2 cDNA tranfected COS-1 cells. Pro MMP-2 activated by 1 mM (4-aminophenyl) mercury acetic acid and MMP-9, derived human fibrosarcome (Yagai Co. Ltd.), were used as enzyme respectively. Inhibition of both enzyme activities were estimated by enzyme assay using MOCAc-Pro-Leu-Gly-Leu-A2pr(Dnp)-Ala-Arg-NH2 (Peptide Research Center, 3163-v) as substrate. Thus, MMP-2 or MMP-9 (0.01 U/ml), test compound (several concentrations), and the substrate (10 μM) were incubated in 50 mM Tris - HCl buffer (pH 7.4) containing 0.2M NaCl, 10 mM CaCl2, 0.02% NaN3, and 0.05% Brij 35 at 42° C. for 2 h (MMP-2), 3 h (MMP-9) respectively. Inhibition of degradation of substrate in the presence of compound was determined by comparison with the degradation of substrate in the absence of compound, and concentration of 50% inhibition (IC50 value) was calculated.

MMP-9 (gelatinase B) = molecular target: T3, MMP-9 (gelatinase B) (Homo sapiens, UniProt P14780); assay: MMP-9 (gelatinase B) inhibitory activities, fluorogenic substrate enzyme assay; settings: 42° C., 3 h, substrate 10 μM
T3 construct: MMP-9, derived human fibrosarcome (Yagai Co. Ltd.), were used as enzyme respectively; purchased Yagai Co. Ltd; host or cells: human fibrosarcoma
Description: as §1, §2

Δ MT1-MMP (Δ MMP-14) = molecular target: T4, Δ MT1-MMP (Δ MMP-14) (Homo sapiens, UniProt P50281); assay: Δ MT1-MMP (Δ MMP-14) inhibitory activities, fluorogenic substrate enzyme assay; settings: 37° C., 30 min, substrate 10 μM; read-out: ΔMMP-14 IC50
T4 construct: ProMT1-MMP cDNA encoded extracellular domain of pro Δ MT1-MMP was tranfected E. coli BL21DE3; made in house; host or cells: E. coli BL21DE3 (inclusion bodies, 8M urea, ion exchange)
Excerpt: Examination 3: Δ MT1-MMP (Δ MMP-14) inhibitory activities.
ProMT1-MMP cDNA encoded extracellular domain of pro Δ MT1-MMP was tranfected E. coli BL21DE3, pro Δ MT1-MMP collected as inclusion body was solved using 8M urea, and it was pulified by ion exchenge column chlomatography. Inhibition of enzyme activities were estimated by enzyme assay using activated Δ MT1-MMP, obtained from activation of pro Δ MT1-MMP by 10 μ/ml tripsine, and MOCAc-Pro-Leu-Gly-Leu-A2pr(Dnp)-Ala-Arg-NH2 (Peptide Research Center, 3163-v) as substrate. Thus, Δ MT1-MMP, test compound (several concentrations), and the substrate (10 μM) were incubated in 50 mM Tris - HCl buffer (pH 7.4) containing 0.2M NaCl, 10 mM CaCl2, 0.02% NaN3, 0.05% Brij 35, and 10 μM leuipeputine at 37° C. for 30 min. The reaction was stopped by adding of 4 volumes of sodium acetate buffer (pH 4.0), and the degradation of substrate was calculated by measurement with a fluorescence intensity (λ ex 328 nm, λ em 393 nm). Inhibition of degradation of substrate in the presence of compound was determined by comparison with the degradation of substrate in the absence of compound, and concentration of 50% inhibition (IC50 value) was calculated.

T3 sequence (P14780 94-707): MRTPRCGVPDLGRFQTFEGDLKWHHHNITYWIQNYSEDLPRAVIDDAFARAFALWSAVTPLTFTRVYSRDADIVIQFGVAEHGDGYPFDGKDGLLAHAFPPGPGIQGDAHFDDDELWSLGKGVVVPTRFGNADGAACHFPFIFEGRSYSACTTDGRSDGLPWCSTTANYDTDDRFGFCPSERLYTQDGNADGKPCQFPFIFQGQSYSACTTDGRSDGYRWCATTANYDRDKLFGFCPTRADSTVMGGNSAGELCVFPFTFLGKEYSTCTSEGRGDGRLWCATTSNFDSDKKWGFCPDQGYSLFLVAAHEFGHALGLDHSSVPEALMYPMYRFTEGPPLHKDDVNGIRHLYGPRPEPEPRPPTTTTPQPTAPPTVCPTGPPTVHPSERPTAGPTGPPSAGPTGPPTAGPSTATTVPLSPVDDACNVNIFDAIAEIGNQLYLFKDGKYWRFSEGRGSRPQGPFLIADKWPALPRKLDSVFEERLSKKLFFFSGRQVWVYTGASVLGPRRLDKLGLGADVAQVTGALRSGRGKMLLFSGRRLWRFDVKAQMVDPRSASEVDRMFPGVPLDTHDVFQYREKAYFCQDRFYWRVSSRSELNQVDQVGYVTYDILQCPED

SMILES | IC50 [1] | IC50 (MMP-2 (gelatinase A)) | IC50 (MMP-9 (gelatinase B)) | IC50 (Δ MT1-MMP (Δ MMP-14)) | inhibition at 10 µM [1]
COc1ccc(-c2ccc(S(=O)(=O)N3CC[C@@H](NCCCC(C)C)C[C@@H]3C(=O)NO)cc2)cc1 [Compound 61, (2R, 4R)-2-Hydroxyaminocarbonyl-1-[4-(4-methoxyphenyl)benzenesulfonyl]-4-(4-methylpentylamino)-piperidine] | – | 2.7 nM | 19 nM | 49 nM | 44.6%
COc1ccc(CN[C@@H]2CCN(S(=O)(=O)c3ccc(-c4ccc(OC)cc4)cc3)[C@@H](C(=O)NO)C2)cc1 [Compound 62, (2R, 4R)-2-Hydroxyaminocarbonyl-4-(4-methoxybenzylamino)-1-[4-(4-methoxyphenyl)benzenesulfonyl]-piperidine] | 870 nM | 0.93 nM | 3.2 nM | 45 nM | –
CC(C)CCC(=O)N[C@@H]1CCN(S(=O)(=O)c2ccc(O)cc2)[C@@H](C(=O)NO)C1 [Compound 63] | 510 nM | 28 nM | 31 nM | 17 nM | –
COc1ccc(S(=O)(=O)N2CC[C@@H](NC(C)=O)C[C@@H]2C(=O)NO)cc1 [Compound 66, (2R, 4R)-4-Acetylamino-2-hydroxyaminocarbonyl-1-(4-methoxybenzenesulfonyl)-piperidine] | 530 nM | 4.2 nM | 8.6 nM | 2.1 nM | –
CC(C)CCC(=O)N[C@@H]1CCN(S(=O)(=O)c2ccc(-c3ccc([N+](=O)[O-])cc3)cc2)[C@@H](C(=O)NO)C1 [Compound 67, (2R, 4R)-2-Hydroxyaminocarbonyl-4-(4-methylpentanoylamino)-1-[4-(4-nitrophenyl)benzenesulfonyl]-piperidine] | 1200 nM | 22 nM | 36 nM | 1500 nM | –
CC(C)CCCN[C@@H]1CCN(S(=O)(=O)c2cccs2)[C@@H](C(=O)NO)C1 [Compound 70, (2R, 4R)-2-Hydroxyaminocarbonyl-4-(4-methylpentylamino)-1-(2-thiophenesulfonyl)-piperidine] | 5600 nM | 740 nM | 83 nM | 380 nM | –
CC(C)CCC(=O)N[C@@H]1CCN(S(=O)(=O)c2ccc([N+](=O)[O-])cc2)[C@@H](C(=O)NO)C1 [Compound 77, (2R, 4R)-2-Hydroxyaminocarbonyl-4-(4-methylpentanoylamino)-1-(4-nitrobenzenesulfonyl)-piperidine] | – | 480 nM | 740 nM | 2300 nM | 32.2%

More lines, now with the values ahead:

IC50 [1] | IC50 (MMP-2 (gelatinase A)) | IC50 (MMP-9 (gelatinase B)) | IC50 (Δ MT1-MMP (Δ MMP-14)) | inhibition at 10 µM [1] | SMILES
4900 nM | 2.9 nM | 890 nM | 130 nM | – | O=C(N[C@@H]1CCN(S(=O)(=O)c2ccc(-c3ccc(O)cc3)cc2)[C@@H](C(=O)NO)C1)c1ccccc1 [Compound 60, (2R, 4R)-4-Benzoylamino-2-hydroxyaminocarbonyl-1-[4-(4-hydroxyphenyl)benzenesulfonyl]-piperidine]
650 nM | 0.91 nM | 0.72 nM | 8.9 nM | – | COc1ccc(-c2ccc(S(=O)(=O)N3CC[C@@H](NC(C)=O)C[C@@H]3C(=O)NO)cc2)cc1 [Compound 64, (2R, 4R)-4-Acetylamino-2-hydroxyaminocarbonyl-1-[4-(4-methoxyphenyl)benzenesulfonyl]-piperidine]
870 nM | 4.8 nM | 51 nM | 23 nM | – | CC(=O)N[C@@H]1CCN(S(=O)(=O)c2ccc(-c3ccc(O)cc3)cc2)[C@@H](C(=O)NO)C1 [Compound 65, (2R, 4R)-4-Acetylamino-2-hydroxyaminocarbonyl-1-[4-(4-hydroxyphenyl)benzenesulfonyl]-piperidine]
640 nM | 19 nM | 3.4 nM | 290 nM | – | CC(C)CCC(=O)N[C@@H]1CCN(S(=O)(=O)c2ccc(-c3ccc(Cl)cc3)cc2)[C@@H](C(=O)NO)C1 [Compound 71, (2R, 4R)-1-[4-(4-Chlorohenyl)benzenesulfonyl]-2-hydroxyaminocarbonyl-4-(4-methylpentanoylamino)-piperidine]
37 nM | 3 nM | 1.1 nM | 23 nM | – | CC(=O)N[C@@H]1CCN(S(=O)(=O)c2ccc(-c3ccc(Cl)cc3)cc2)[C@@H](C(=O)NO)C1 [Compound 72, (2R, 4R)-4-Acetylamino-1-[4-(4-chlorohenyl)benzenesulfonyl]-2-hydroxyaminocarbonyl-piperidine]
– | 5.2 nM | 13 nM | 74 nM | 48.9% | O=C(N[C@@H]1CCN(S(=O)(=O)c2ccc(-c3ccc(Cl)cc3)cc2)[C@@H](C(=O)NO)C1)c1ccccn1 [Compound 74, (2R, 4R)-1-[4-(4-Chlorophenyl)benzenesulfonyl]-2-hydroxyaminocarbonyl-4-(2-pyridinecarbonylamino)-piperidine]
2500 nM | 15 nM | 16 nM | 890 nM | – | COc1ccc(-c2ccc(S(=O)(=O)N3CC[C@@H](NC(=O)c4ccc([N+](=O)[O-])cc4)C[C@@H]3C(=O)NO)cc2)cc1 [Compound 75, (2R, 4R)-2-Hydroxyaminocarbonyl-1-[4-(4-methoxyphenyl)benzenesulfonyl]-4-(4-nitrobenzoylamino)-piperidine]
– | 12 nM | 21 nM | 96 nM | 12.9% | COc1ccc(-c2ccc(S(=O)(=O)N3CC[C@@H](NC(=O)c4c[nH]c5ccccc45)C[C@@H]3C(=O)NO)cc2)cc1 [Compound 76, (2R, 4R)-2-Hydroxyaminocarbonyl-4-(3-indolecarbonylamino)-1-[4-(4-methoxyphenyl)benzenesulfonyl]-piperidine]
